Data published in PMC7910608, “Tuning flavin environment to detect and control light-induced conformational switching in Drosophila cryptochrome” (Communications Biology, 2021).

Legend:
Type in all cases: binding
dCRY; dCRY(WT)-SORTC-SL [1] = target: T1, dCRY; dCRY(WT)-SORTC-SL (Drosophila melanogaster, UniProt O77059, H378N); test: cw-ESR, UV-vis and 4P-DEER of bound flavin after blue light; details: pH 8; anionic semiquinone formed in light
T1 construct: gene cry; full length, N-terminal twin-Strep tag, C-terminal sort-tag (LPGTG) ligated to GGGGC-nitroxide (LPGTGGGGC); E. coli CmpX13

dCRY; dCRY(WT)-SORTC-SL [2] = target: T2, dCRY; dCRY(WT)-SORTC-SL (Drosophila melanogaster, UniProt O77059, H378K/L405E/C416N); test: as above; details: pH 8; neutral semiquinone formed in light
T2 construct: gene cry; full length, N-terminal twin-Strep tag, C-terminal sort-tag (LPGTG) ligated to GGGGC-nitroxide (LPGTGGGGC); E. coli CmpX13

dCRY; dCRY(WT)-SORTC-SL [3] = target: T3, dCRY; dCRY(WT)-SORTC-SL (Drosophila melanogaster, UniProt O77059, L405E/C416N); test: UV-vis, ENDOR and cw-ESR of bound flavin, blue-light photoreduction; details: pH 8; neutral semiquinone formed in light
T3 construct: gene cry; full length, N-terminal twin-Strep tag, C-terminal sort-tag (LPGTG) ligated to GGGGC-nitroxide (LPGTGGGGC); E. coli CmpX13

dCRY; dCRY(WT)-SORTC-SL [4] = target: T4, dCRY; dCRY(WT)-SORTC-SL (Drosophila melanogaster, UniProt O77059, H378K); test: cw-ESR, UV-vis and 4P-DEER of bound flavin after blue light; details: pH 8; anionic semiquinone formed in light
T4 construct: gene cry; full length, N-terminal twin-Strep tag, C-terminal sort-tag (LPGTG) ligated to GGGGC-nitroxide (LPGTGGGGC); E. coli CmpX13

dCRY; dCRY(WT)-SORTC-SL [5] = target: T5, dCRY; dCRY(WT)-SORTC-SL (Drosophila melanogaster, UniProt O77059, H378R); test: as above; details: pH 8; anionic semiquinone formed in light
T5 construct: gene cry; full length, N-terminal twin-Strep tag, C-terminal sort-tag (LPGTG) ligated to GGGGC-nitroxide (LPGTGGGGC); E. coli CmpX13

dCRY; dCRY(WT)-SORTC-SL [6] = target: T6, dCRY; dCRY(WT)-SORTC-SL (Drosophila melanogaster, UniProt O77059, H378N/L405E/C416N); test: as above; details: pH 8; neutral semiquinone formed in light
T6 construct: gene cry; full length, N-terminal twin-Strep tag, C-terminal sort-tag (LPGTG) ligated to GGGGC-nitroxide (LPGTGGGGC); E. coli CmpX13

dCRY; dCRY(WT)-SORTC-SL [7] = target: T7, dCRY; dCRY(WT)-SORTC-SL (Drosophila melanogaster, UniProt O77059); test: X-ray crystal structure, […] A; also UV-vis and ENDOR; details: dark state; crystals at pH 9; magnesium
T7 construct: gene cry; full length, N-terminal twin-Strep tag, C-terminal sort-tag (LPGTG) ligated to GGGGC-nitroxide (LPGTGGGGC); E. coli CmpX13

dCRY; dCRY(WT)-SORTC-SL [8] = target: T8, dCRY; dCRY(WT)-SORTC-SL (Drosophila melanogaster, UniProt O77059, H378R/L405E/C416N); test: cw-ESR, UV-vis and 4P-DEER of bound flavin after blue light; details: pH 8; neutral semiquinone formed in light
T8 construct: gene cry; full length, N-terminal twin-Strep tag, C-terminal sort-tag (LPGTG) ligated to GGGGC-nitroxide (LPGTGGGGC); E. coli CmpX13
T8 sequence (O77059 1-539 H378R/L405E/C416N): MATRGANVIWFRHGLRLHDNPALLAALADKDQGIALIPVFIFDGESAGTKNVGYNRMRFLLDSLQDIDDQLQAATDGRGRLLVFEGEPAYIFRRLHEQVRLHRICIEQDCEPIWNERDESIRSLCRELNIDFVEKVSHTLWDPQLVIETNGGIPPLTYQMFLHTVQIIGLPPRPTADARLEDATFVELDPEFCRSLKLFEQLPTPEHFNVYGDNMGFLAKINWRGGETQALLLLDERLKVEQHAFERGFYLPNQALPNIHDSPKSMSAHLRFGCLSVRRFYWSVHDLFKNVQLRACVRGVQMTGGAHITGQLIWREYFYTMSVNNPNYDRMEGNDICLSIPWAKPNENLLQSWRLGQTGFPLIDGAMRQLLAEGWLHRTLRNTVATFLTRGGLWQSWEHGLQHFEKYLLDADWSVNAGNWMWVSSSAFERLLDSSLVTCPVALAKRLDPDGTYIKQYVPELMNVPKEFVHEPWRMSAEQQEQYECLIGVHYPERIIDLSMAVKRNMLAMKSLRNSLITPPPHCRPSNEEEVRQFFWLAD

T7 sequence (O77059 1-539): as the sequence (O77059 1-539 H378R/L405E/C416N) above, with R378H, E405L, N416C counted along it
T4 sequence (O77059 1-539 H378K): as the sequence (O77059 1-539 H378R/L405E/C416N) above, with R378K, E405L, N416C counted along it
T3 sequence (O77059 1-539 L405E/C416N): as the sequence (O77059 1-539 H378R/L405E/C416N) above, with R378H counted along it
T1 sequence (O77059 1-539 H378N): as the sequence (O77059 1-539 H378R/L405E/C416N) above, with R378N, E405L, N416C counted along it
T6 sequence (O77059 1-539 H378N/L405E/C416N): as the sequence (O77059 1-539 H378R/L405E/C416N) above, with R378N counted along it
T2 sequence (O77059 1-539 H378K/L405E/C416N): as the sequence (O77059 1-539 H378R/L405E/C416N) above, with R378K counted along it
T5 sequence (O77059 1-539 H378R): as the sequence (O77059 1-539 H378R/L405E/C416N) above, with E405L, N416C counted along it

Compound: Cc1cc2nc3c(=O)[nH]c(=O)nc-3n(C[C@H](O)[C@H](O)[C@H](O)COP(=O)(O)OP(=O)(O)OC[C@H]3O[C@@H](n4cnc5c(N)ncnc54)[C@H](O)[C@@H]3O)c2cc1C [FAD]
- cw-ESR, UV-vis and 4P-DEER of bound flavin after blue light (dCRY; dCRY(WT)-SORTC-SL [1]): H378 substitutions (H378K/N/R) led to ASQ formation
- cw-ESR, UV-vis and 4P-DEER of bound flavin after blue light (dCRY; dCRY(WT)-SORTC-SL [2]): triple substitutions (H378K/N/R, L405E, and C416N) led to NSQ formation
- UV-vis, ENDOR and cw-ESR of bound flavin, blue-light photoreduction (dCRY; dCRY(WT)-SORTC-SL [3]): Both WT dCRY and L405E/C416N show characteristic absorption bands of oxidized FAD in the dark
- cw-ESR, UV-vis and 4P-DEER of bound flavin after blue light (dCRY; dCRY(WT)-SORTC-SL [4]): H378 substitutions (H378K/N/R) led to ASQ formation
- cw-ESR, UV-vis and 4P-DEER of bound flavin after blue light (dCRY; dCRY(WT)-SORTC-SL [5]): H378 substitutions (H378K/N/R) led to ASQ formation
- cw-ESR, UV-vis and 4P-DEER of bound flavin after blue light (dCRY; dCRY(WT)-SORTC-SL [6]): triple substitutions (H378K/N/R, L405E, and C416N) led to NSQ formation
- X-ray crystal structure, 2.58 A; also UV-vis and ENDOR (dCRY; dCRY(WT)-SORTC-SL [7]): The crystal structure of dCRY-WT-SORTC-SL in the dark state shows that the active site FAD
- cw-ESR, UV-vis and 4P-DEER of bound flavin after blue light (dCRY; dCRY(WT)-SORTC-SL [8]): triple substitutions (H378K/N/R, L405E, and C416N) led to NSQ formation
